Where two headings read alike, the source gives them in different places.
Legend:
[1] = system: sebaceous gland carcinoma cell line SHNPH-SeC; experiment: Drug sensitivity test of SHNPH-SeC cells (CCK-8 cell viability); type: cell-based, human; conditions: 48 h, cell viability by CCK-8, read-out: Half-maximal effective concentration (EC50)
Protocol: Cells in a logarithmic growth phase were harvested and prepared into a cell suspension at a concentration of 2×10^4 cells/mL. The cell suspension was inoculated into a 96-well plate at 100 μL/well. The cell proliferation in the 96-well plate was measured by the CCK-8 method on day 0, day 1, day 2, day 3, and day 4. The CCK-8 method was performed according to instructions of a kit. Specifically, a sample was incubated with 10 μL of a CCK-8 solution for 2 h in a 37° C. and 5% CO2 incubator, and an OD value was then measured at 450 nm. As shown in the growth curve of FIG. 3A, the sebaceous gland carcinoma cell line SHNPH-SeC required a doubling time of approximately 36 h, indicating a strong proliferative capacity.
Cells in a logarithmic growth phase were collected and prepared into a cell suspension with a concentration of 2×10^4 cells/mL. […] When a cell density reached approximately 80%, MMC was added to each well at concentrations of 0 μmol/L, 0.15625 μmol/L, 0.3125 μmol/L, 0.625 μmol/L, 1.25 μmol/L, 2.5 μmol/L, 5 μmol/L, 10 μmol/L, and 20 μmol/L or 5-FU was added to each well at concentrations of 0 μmol/L, 5 μmol/L, 10 μmol/L, 20 μmol/L, 40 μmol/L, 80 μmol/L, 160 μmol/L, 320 μmol/L, and 640 μmol/L. 48 h later, a cell viability in each well was detected by the CCK-8 method, with a specific process as described in section 2.3. […]

[2] = system: sebaceous gland carcinoma cell line BP50 without a TP53 mutation; conditions: BP50 cells without a TP53 mutation, previously reported; cited from earlier work

EC50 ([1]; Homo sapiens) [µM]	Structure (SMILES)	EC50 [2] [µM]	EC50 [1] [µM]
83	O=c1[nH]cc(F)c(=O)[nH]1 [5-FU, 5-fluorouracil]		
	CO[C@@]12[C@H](COC(N)=O)C3=C(C(=O)C(C)=C(N)C3=O)N1C[C@@H]1N[C@@H]12 [MMC, mitomycin C]	10.4	1.13

— US20260146236A1, “HUMAN SEBACEOUS GLAND CARCINOMA CELL LINE AND US THEREOF” (SHANGHAI NINTH PEOPLE'S HOSPITAL, SHANGHAI JIAOTONG …, priority 2023, published 2026)
